# Tested on: Pyricularia oryzae
# Type: cell-based
# Conditions: liquid culture, incubation with compound 24-48 h
row,Compound,branch of the dendrogram of IR spectra (FIG. 8)
1,Fc1ccc([C@]2(Cn3cncn3)O[C@H]2c2ccccc2Cl)cc1 (racemic) [epoxiconazole],third branch of the dendrogram
2,CO/C=C(/C(=O)OC)c1ccccc1Oc1cc(Oc2ccccc2C#N)ncn1 [azoxystrobin],clustered together in the second branch
3,propioconazole,third branch of the dendrogram
4,COC(=O)N(OC)c1ccccc1COc1ccn(-c2ccc(Cl)cc2)n1 [pyraclostrobin],clustered together in the second branch
5,CCCCC(C#N)(Cn1cncn1)c1ccc(Cl)cc1 (stereo not drawn) [myclobutanil],third branch of the dendrogram
6,CNC(=O)/C(=N/OC)c1ccccc1CO/N=C(C)/C(=N/OC)C(/C)=N/OC [orysastrobin],clustered together in the second branch

# From patent US20110160594A1 (priority 2008, published 2011)
